Reference: patent US11225475B2, “Substituted pyridines as inhibitors of histone deacetylase” (Alkermes, Inc., priority 2017, dated 2022)

These molecules were tested on human erythroid (CFU-E, BFU-E) progenitors (assay: Erythroid CFU assay (human bone marrow clonogenic progenitors)). Conditions: 10 uM, 14 days in culture.
Type: cell-based
Experimental: (§1) Clonogenic progenitors of human erythroid (CFU-E, BFU-E), granulocyte-monocyte (CFU-GM) and multipotential (CFU-GEMM) lineages were assessed in a semi-solid methylcellulose-based media formulation containing rhIL-3 (10 ng/mL), rhGM-SCF (10 ng/mL), rhSCF (50 ng/mL) and Epo (3 U/mL).
(§2) Normal human bone marrow light density cells derived from normal bone marrow (NorCal Biologics, California) and qualified at ReachBio, were stored in the gaseous phase of liquid nitrogen (−152° C.) until required for the assay. On the day of the experiment, the cells were thawed rapidly, the contents of each vial was diluted in 10 mL of Iscove's modified Dulbecco's medium containing 10% fetal bovine serum (IMDM+10% FBS) and washed by centrifugation (approximately 1200 r.p.m. for 10 minutes, room temperature). The supernatant was discarded and the cell pellets resuspended in a known volume of IMDM+10% FBS. A cell count (3% glacial acetic acid) and viability assessment (trypan blue exclusion test) was performed for the bone marrow sample.
(§3) On the day of the experiment, the compounds were dissolved in DMSO to a stock concentration of 10 mM. Serial dilutions were prepared from the stock concentration to achieve concentrations of 2 and 0.4 mM. When added to the methylcellulose-based media at 1:1000 (v/v), the final test concentrations of 10, 2 and 0.4 μM were achieved. Additionally, 5-FU was evaluated at 1.0, 0.1 and 0.01 μg/mL.
(§4) Clonogenic progenitors of the human erythroid (CFU-E and BFU-E) and myeloid (CFU-GM) lineages were set up in the methylcellulose-based media formulations described above. All compounds were added to the medium to give the final desired concentrations ([…] 5-Fluorouracil (Sigma Aldrich) was used as a positive control for progenitor proliferation (inhibition of colony growth) and was introduced to the human bone marrow cultures at 1.0, 0.1, and 0.01 μg/mL. Solvent control cultures (containing no compound but 0.1% DMSO) as well as standard controls (containing no compound and no DMSO) were also initiated.
(§5) Human myeloid and erythroid progenitor assays were initiated at 2.0×10^4 cells per culture. Following 14 days in culture, myeloid and erythroid colonies were assessed microscopically and scored by trained personnel. The colonies were divided into the following categories based on size and morphology: CFU-E, BFU-E, CFU-GM and CFU-GEMM.
(§6) The mean±one standard deviation of three replicate cultures was calculated for progenitors of each category (CFU-E, BFU-E, etc.). Two-tailed t-tests were performed to assess if there was a difference in the number of colonies generated between solvent control and treated cultures. Due to the potential subjectivity of colony enumeration, a p value of less than 0.01 is deemed significant. To calculate the concentration of 50% inhibition of colony growth (IC50) for each compound, a dose response curve was generated plotting the log of the compound concentration versus the percentage of control colony growth using XLfit software (IDBS). The concentration of 50% inhibition of colony growth (IC50) was calculated based on the sigmoid curve fit using Dose-Response, One-Site Model formula: y=A+[(B−A)/(1+((C/x)^D))], where A=the initial value (baseline response), B=maximum response, C=center (drug concentration that provokes a response halfway between A and B) and D=slope of the curve at midpoint. Further, plots and additional dose response curves were generated using GraphPad Prism 7.0.
(§7) Erythroid (CFU-E and BFU-E), myeloid (CFU-GM) and multi-potential (CFU-GEMM) colony enumeration was performed by trained personnel. The distribution of colony types as well as general colony and cellular morphology was analyzed. For statistical analysis colony numbers in compound treated cultures were compared to the solvent control cultures. […] The experiment was used to evaluate the potential effect of test compounds on human erythroid and myeloid progenitor proliferation in a methylcellulose-based medium. […]
For `CCn1cc2c(n1)CN(C(=O)Nc1nc(-c3ccc(F)cc3)ccc1N)C2` [Comparator 1, reference compound], the “Erythroid % control remaining @ 10 uM dose” value was 22%.
With `Cc1nc2c(s1)CN(C(=O)Nc1nc(-c3ccc(F)cc3)ccc1N)C2` [Comparator 2, reference compound] the “Erythroid % control remaining @ 10 uM dose” value was 45%.
With `COCCn1cc2c(n1)CN(C(=O)Nc1nc(-c3cccs3)ccc1N)C2` [Comparator 3, reference compound] the “Erythroid % control remaining @ 10 uM dose” value was 18%.
With `COCCn1cc2c(n1)CN(C(=O)Nc1nc(-c3ccc(F)cc3)ccc1N)C2` [Comparator 4, reference compound] the “Erythroid % control remaining @ 10 uM dose” value was 28%.
With `Cc1cc2c(cn1)CN(C(=O)Nc1nc(-c3ccc(F)cc3)ccc1N)C2` [Comparator 5, reference compound] the “Erythroid % control remaining @ 10 uM dose” value was 25.7%.
With `COCc1cc2c(cn1)CN(C(=O)Nc1nc(-c3ccc(F)cc3)ccc1N)C2` [Comparator 6, reference compound] the “Erythroid % control remaining @ 10 uM dose” value was 22.9%.
In the case of `Nc1ccc(-c2ccc(F)cc2)nc1NC(=O)N1Cc2cc(CN3CC(F)C3)cnc2C1` [Comparator 7, reference compound], the “Erythroid % control remaining @ 10 uM dose” value is reported as 35%.
With `COCc1ccc2c(n1)CN(C(=O)Nc1nc(-c3ccc(F)cc3)ccc1N)C2` [Comparator 8, reference compound] the “Erythroid % control remaining @ 10 uM dose” value was 33%.
For `CCc1ncc2c(n1)CN(C(=O)Nc1nc(-c3ccc(F)cc3)ccc1N)C2` [Comparator 9, reference compound], the “Erythroid % control remaining @ 10 uM dose” value was 60%.

Same assay, conditions: erythroid and myeloid progenitor assays; 1.0, 0.1 and 0.01 μg/mL
`O=c1[nH]cc(F)c(=O)[nH]1` [Compound 5-FU, 5-Fluorouracil, reference compound] was tested, and the “inhibitory effects as positive control for toxicity” value was “exactly as expected”.

What follows are molecules tested on human myeloid (CFU-GM) progenitors (assay: Myeloid CFU assay (human bone marrow clonogenic progenitors)). Conditions: 14 days in culture.
Type: cell-based
Experimental: as §1, §2, §3, §4, §5, §6, §7
For `CCn1cc2c(n1)CN(C(=O)Nc1nc(-c3ccc(F)cc3)ccc1N)C2` [Comparator 1, reference compound], the “Myeloid % control remaining @ 10 uM dose” value was 34%.
For `Cc1nc2c(s1)CN(C(=O)Nc1nc(-c3ccc(F)cc3)ccc1N)C2` [Comparator 2, reference compound], the “Myeloid % control remaining @ 10 uM dose” value was 103%.
`COCCn1cc2c(n1)CN(C(=O)Nc1nc(-c3cccs3)ccc1N)C2` [Comparator 3, reference compound] was tested, and the “Myeloid % control remaining @ 10 uM dose” value was 9%.
With `COCCn1cc2c(n1)CN(C(=O)Nc1nc(-c3ccc(F)cc3)ccc1N)C2` [Comparator 4, reference compound] the “Myeloid % control remaining @ 10 uM dose” value was 39%.
With `Cc1cc2c(cn1)CN(C(=O)Nc1nc(-c3ccc(F)cc3)ccc1N)C2` [Comparator 5, reference compound] the “Myeloid % control remaining @ 10 uM dose” value was 66.1%.
For `COCc1cc2c(cn1)CN(C(=O)Nc1nc(-c3ccc(F)cc3)ccc1N)C2` [Comparator 6, reference compound], the “Myeloid % control remaining @ 10 uM dose” value was 58.9%.
With `Nc1ccc(-c2ccc(F)cc2)nc1NC(=O)N1Cc2cc(CN3CC(F)C3)cnc2C1` [Comparator 7, reference compound] the “Myeloid % control remaining @ 10 uM dose” value was 82%.
With `COCc1ccc2c(n1)CN(C(=O)Nc1nc(-c3ccc(F)cc3)ccc1N)C2` [Comparator 8, reference compound] the “Myeloid % control remaining @ 10 uM dose” value was 70%.
`CCc1ncc2c(n1)CN(C(=O)Nc1nc(-c3ccc(F)cc3)ccc1N)C2` [Comparator 9, reference compound] was tested, and the “Myeloid % control remaining @ 10 uM dose” value was 79%.
